Molecules are shown by their SMILES. Like-named read-outs stand apart in the source and are kept apart here.

In data set [1] the test system is Leishmania amazonensis promastigotes, strain MHOM/BR/77/LTB0016. Briefly: Antipromastigote activity assay (resazurin). Format: cell-based. The settings on record: 72 h, mean ± SD from three independent experiments, read-out: Activity IC50 (µM/72 h), promastigote form of L. amazonensis. The procedure: Initially, compounds 14 to 25 were subjected to preliminary in vitro screening against Leishmania amazonensis promastigotes, strain MHOM/BR/77/LTB0016. The 50% growth inhibitory concentration (IC50) was measured after 72 h of cultivation with each compound using a resazurin assay conducted in independent triplicate experiments. […] Leishmania amazonensis (MHOM/BR/77/LTB0016) was cultured as promastigotes at 26 °C using Schneider’s insect medium (Sigma-Aldrich, St Louis, MO, USA), supplemented with 10% heat-inactivated fetal calf serum (HIFCS), 100 μg/mL streptomycin, and 100 U/mL penicillin. The parasites were sustained up to the 10th passage, after which fresh cultures were derived from infected host animals. L. amazonensis promastigotes were cultured in Schneider’s insect medium with 10% HIFCS, as described above, with or without various concentrations of test substances. The initial cell density was 1.0 × 10^6 cells/mL, and the culture was kept at 26 °C for 72 h. Resazurin reduction was used to evaluate the cell viability. The concentration required to inhibit 50% of the promastigote activity (IC50) was calculated using logarithmic regression analysis via GraphPrism 5 software.

Data set [2] in a line: Cytotoxicity assay (resazurin). Format: cell-based. The note with it: mouse, murine peritoneal macrophages, 0–200 µM tested, mean ± SD from three independent experiments. As to the method:
Murine peritoneal macrophages were collected by flushing the peritoneal cavity with 5 mL of RPMI 1640 medium containing 10% HIFCS, 2 mM L-glutamine, 1 mM pyruvate, 100 μg/mL streptomycin, and 100 U/mL penicillin. The macrophage suspension was adjusted to 1.0 × 10^6 cells/mL and then plated in triplicate in 96-well plates (Falcon Co., Franklin Lakes, NJ, USA). Cultures were incubated at 37 °C in a 5% CO2 environment for 1 h. Nonadherent cells were subsequently removed, and the remaining cells were exposed to varying concentrations of test compounds (0–200 μM) for 72 h. Viability was assessed using a resazurin assay, and the concentration that caused 50% cytotoxicity (CC50) was determined using logarithmic regression analysis with GraphPrism 5 software.

Data set [3] deals with intracellular amastigote form of Leishmania amazonensis. The data set can be described thus: Antiamastigote activity assay (infected peritoneal macrophages, infection index). It is filed as cell-based. The settings on record: Macrophage, 72 h, L. amazonensis in murine macrophages, mean ± SD from three independent experiments, read-out: Intracellular Amastigotes IC50 (µM/72 h). As to the method:
Resident peritoneal macrophages were seeded in RPMI medium (Sigma-Aldrich) at 1 × 10^6 cells/mL (0.4 mL/well) on Lab-Tek eight-chamber slides (Nunc) and incubated at 37 °C in 5% CO2 for 1 h. After this period, nonadherent cells were removed, and the adherent macrophages were co-cultured with L. amazonensis promastigotes at a 5:1 parasite-to-cell ratio. After 4 h, the monolayers were washed to eliminate free parasites. Cells were then treated with different concentrations of the compounds and incubated for 72 h at 37 °C in 5% CO2. Following incubation, the slides were stained using the Instant Prov hematological dye (Newprov, Curitiba, Brazil), and antileishmanial activity was assessed microscopically. Amastigote numbers were determined by counting at least 100 macrophages per sample, and the results were expressed as an infection index (II), calculated as: II = (percentage of infected cells) × (number of amastigotes/total macrophages). Dose–response curves for the antiamastigote activity were generated using nonlinear regression in GraphPad Prism 5.0, and IC50 values were calculated.

Data set [4] shares this test system. On the set-up: method as in PMID 21555166, PMID 20833057. The settings on record: previously reported HIT; read-out: IC50 for the intracellular amastigote form of L. amazonensis; cited from earlier work.

The CC50 is the concentration at which the toxic effect on the cells reaches its halfway point. The low end stands for greater toxicity to the cells, the high end for lower toxicity to the cells. `CC1(Cc2ccccc2)CC(C(=O)Nc2ccc(Br)cn2)=C(c2ccc(C(N)=NO)cc2)O1` (stereo not shown) [Compound 14, 5-Benzyl-N-(5-bromopyridin-2-yl)-2-(4-(N′-hydroxycarbamimidoyl)phenyl)-5-methyl-4,5-dihydrofuran-3-carboxamide]: the values for the IC50 in data set [1] and in data set [3] were 15 ± 1.03 µM and 0.5 ± 0.15 µM, respectively. Besides, in data set [2], it took 171.5 ± 1.19 µM to reach half-maximal cytotoxicity (CC50 at 72 h).
The like results for `CC1(Cc2ccccc2)CC(C(=O)Nc2ccc(Cl)cn2)=C(c2ccc(C(N)=NO)cc2)O1` (stereo not shown) [Compound 15, 5-Benzyl-N-(5-chloropyridin-2-yl)-2-(4-(N′-hydroxycarbamimidoyl)phenyl)-5-methyl-4,5-dihydrofuran-3-carboxamide] were, in that order, 16 ± 1.03 µM, 0.6 ± 0.2 µM and greater than 200 µM.
On to `Cc1ccc(NC(=O)C2=C(c3ccc(C(N)=NO)cc3)OC(C)(Cc3ccccc3)C2)nc1` (stereo not shown) [Compound 16, 5-Benzyl-2-(4-(N′-hydroxycarbamimidoyl)phenyl)-5-methyl-N-(5-methylpyridin-2-yl)-4,5-dihydrofuran-3-carboxamide], for which the figures for the IC50 in data set [1] and in data set [3] were 17 ± 1.02 µM and 0.3 ± 0.07 µM, respectively. In addition, the half-maximal cytotoxic concentration (CC50) at 72 h in data set [2] is greater than 200 µM.
As for `CC1(Cc2ccccc2)CC(C(=O)Nc2ccccn2)=C(c2ccc(C(N)=NO)cc2)O1` (stereo not shown) [Compound 17, 5-Benzyl-2-(4-(N′-hydroxycarbamimidoyl)phenyl)-5-methyl-N-(pyridin-2-yl)-4,5-dihydrofuran-3-carboxamide], the IC50 in data set [1] is 22.4 ± 1.02 µM.
Same read-out and setting: for `CC1(Cc2ccccc2)CC(C(=O)Nc2ccncc2)=C(c2ccc(C(N)=NO)cc2)O1` (stereo not shown) [Compound 18, 5-Benzyl-2-(4-(N′-hydroxycarbamimidoyl)phenyl)-5-methyl-N-(pyridin-4-yl)-4,5-dihydrofuran-3-carboxamide] the value was 23.5 ± 1.04 µM; for `CC1(Cc2ccccc2)CC(C(=O)Nc2ccccc2)=C(c2ccc(C(N)=NO)cc2)O1` (stereo not shown) [Compound 19, 5-Benzyl-2-(4-(N′-hydroxycarbamimidoyl)phenyl)-5-methyl-N-phenyl-4,5-dihydrofuran-3-carboxamide], 23.8 ± 1.02 µM.
On the same count and under the same terms, for `CC1(Cc2ccccc2)CC(C(=O)Nc2ccc(F)cc2)=C(c2ccc(C(N)=NO)cc2)O1` (stereo not shown) [Compound 20, 5-Benzyl-N-(4-fluorophenyl)-2-(4-(N′-hydroxycarbamimidoyl)phenyl)-5-methyl-4,5-dihydrofuran-3-carboxamide] the value was 23.8 ± 1.02 µM; for `CC1(Cc2ccccc2)CC(C(=O)NCc2ccc(C(F)(F)F)cc2)=C(c2ccc(C(N)=NO)cc2)O1` (stereo not shown) [Compound 21, 5-Benzyl-2-(4-(N′-hydroxycarbamimidoyl)phenyl)-5-methyl-N-(4-(trifluoromethyl)benzyl)-4,5-dihydrofuran-3-carboxamide], 26.4 ± 1.02 µM.
Still for that read-out and setting: as for `CC1(Cc2ccccc2)CC(C(=O)Nc2cccnn2)=C(c2ccc(C(N)=NO)cc2)O1` (stereo not shown) [Compound 22, 5-Benzyl-2-(4-(N′-hydroxycarbamimidoyl)phenyl)-5-methyl-N-(pyridazin-3-yl)-4,5-dihydrofuran-3-carboxamide], the figure is 29.9 ± 1.02 µM.
For `CC1(Cc2ccccc2)CC(C(=O)Nc2ccc(Cl)nn2)=C(c2ccc(C(N)=NO)cc2)O1` (stereo not shown) [Compound 23, 5-Benzyl-N-(6-chloropyridazin-3-yl)-2-(4-(N′-hydroxycarbamimidoyl)phenyl)-5-methyl-4,5-dihydrofuran-3-carboxamide], the IC50 in data set [1] was found to be 36.4 ± 1.03 µM.
Still for that read-out and setting: for `CC1(Cc2ccccc2)CC(C(=O)Nc2cnccn2)=C(c2ccc(C(N)=NO)cc2)O1` (stereo not shown) [Compound 24, 5-Benzyl-2-(4-(N′-hydroxycarbamimidoyl)phenyl)-5-methyl-N-(pyrazin-2-yl)-4,5-dihydrofuran-3-carboxamide] the value was 39.4 ± 1.02 µM; for `Cc1cc(NC(=O)C2=C(c3ccc(C(N)=NO)cc3)OC(C)(Cc3ccccc3)C2)nn1C` (stereo not shown) [Compound 25, 5-Benzyl-N-(1,5-dimethyl-1H-pyrazol-3-yl)-2-(4-(N′-hydroxycarbamimidoyl)phenyl)-5-methyl-4,5-dihydrofuran-3-carboxamide], 52.5 ± 1.03 µM.
For `CC1(Cc2ccccc2)CC(S(=O)(=O)c2ccc(F)cc2)=C(c2ccc(C(N)=NO)cc2)O1` (stereo not shown) [HIT, 4-(5-benzyl-3-((4-fluorophenyl)sulfonyl)-5-methyl-4,5-dihydrofuran-2-yl)-N′-hydroxybenzimidamide], in data set [4], the IC50 was 7.9 ± 1.1 µM.

(Values after article PMC11597885, “Enhancing Antileishmanial Activity of Amidoxime-Based Compounds Bearing a 4,5-Dihydrofuran Scaffold: In Vitro Screening Against Leishmania amazonensis” (Molecules, 2024).)
